This passage reports virus clearance and log10 reduction factor results from patent US12351602B2, “Methods of inactivating viral contaminants” (Ichnos Sciences SA, priority 2017, dated 2025).

The experiment concerns MLV. Kind of experiment: VRV study, Arginine treatment of PA eluate. On the procedure:
Based on the stability and activity studies reported in Example 1, the most promising viral inactivation methods were further tested for their ability to inactivate viruses. The effectiveness of the viral inactivation was evaluated by doing a spiking study at Bioreliance. Test samples were taken before and after each treatment and analyzed for viral titre. First, VRV study on Arginine treatment was carried out.
Only one virus, MLV, which is a typical model virus used for biological products derived from CHO cell lines such as monoclonal antibody, was used for this study. A total of 7 runs were performed. PA eluate from development runs was used as starting material. Different stock buffers of Arginine at the different pH (pH 4.0, pH 4.75, pH 4.79 and pH 5.5) were used to reach the target pH and concentration. The samples were neutralized using 250 mM Histidine pH 12.0 buffer around pH 6.0 to stop the reaction.
Log reduction values was calculated with respect to the neutralized load sample, a 5 plate large volume plating as well as a standard titration was performed on the t=60 min sample. The neutralized load hold sample was held at 16.0° C. to 20.0° C. for 60 minutes (runs 2, 4 and 6) or 120 minutes (runs 1, 3, 5 and 7).

For `N=C(N)NCCC[C@H](N)C(=O)O` [Arginine], where the note is “Arginine treatment at pH 4.0”, the virus clearance entry is recorded as “effective (“effective”, when RF is greater than 4 log10)”. Also, the log10 reduction factor entry is recorded as “no reduction” (Run 5, Arginine concentration 0.38, pH 4.79, 120 min) and “no reduction” (Run 7, Arginine concentration 0.8, pH 5.5, 120 min).
